Experimental data as given in US20230338609A1, “MEDICAL DEVICES AND MATERIALS COMPRISING BIODEGRADABLE POLYESTERS” (AMICOAT AS, priority 2020, published 2023).
≈ marks a conversion by molar mass, not a printed value.

Legend:
[1] = tested on: EMRSA3 Staphylococcus aureus (MRSA) - SSCmec type 1; assay type: cell-based; conditions: EMRSA3 - SSCmec type 1
Description: (§1) Cation-adjusted Mueller-Hinton broth (Oxoid Ltd., Basingstoke, UK and Trek Diagnostic Systems Ltd., East Grinstead, UK) (supplemented with 5% laked horse blood for Streptococcus spp., Corynebacterium jeikeium and Listeria monocytogenes) was used for aerobic bacteria, with an initial inoculum of approximately 10^5 colony-forming units (CFU)/mL.

[2] = tested on: Enterococcus faecium vancomycin-resistant (VanA) clinical isolate; assay type: cell-based
Description: as §1

[3] = tested on: Staphylococcus aureus - methicillin-resistant clinical isolate; assay type: cell-based
Description: as §1

[4] = tested on: Group G Streptococcus - antibiotic-susceptible clinical isolate; assay type: cell-based
Description: as §1

[5] = tested on: EMRSA16 Staphylococcus aureus (MRSA) - SSCmec type 2; assay type: cell-based; conditions: EMRSA16 - SSCmec type 2
Description: as §1

[6] = tested on: Staphylococcus epidermidis methicillin-resistant clinical isolate; assay type: cell-based
Description: as §1

[7] = tested on: Pseudomonas aeruginosa ATCC27853 - antibiotic-susceptible type strain; assay type: cell-based
Description: as §1

[8] = tested on: Group G Streptococcus - macrolide-resistant clinical isolate; assay type: cell-based
Description: as §1

[9] = tested on: Streptococcus bovis - macrolide-resistant clinical isolate; assay type: cell-based
Description: as §1

[10] = tested on: HT2001254 Staphylococcus aureus (MRSA) - PVL positive; assay type: cell-based
Description: as §1

[11] = tested on: Streptococcus pyogenes - Macrolide (MLS) resistant clinical isolate; assay type: cell-based
Description: as §1

[12] = tested on: Klebsiella aerogenes NCTC11228 - antibiotic-susceptible type strain; assay type: cell-based
Description: as §1

[13] = tested on: Streptococcus agalactiae - macrolide-resistant clinical isolate; assay type: cell-based
Description: as §1

[14] = tested on: Staphylococcus aureus ATCC 29213 - antibiotic-susceptible control strain; assay type: cell-based
Description: as §1

[15] = tested on: Enterococcus faecalis vancomycin-resistant (VanB) clinical isolate; assay type: cell-based
Description: as §1

[16] = tested on: Enterococcus faecalis high-level gentamicin-resistant clinical isolate; assay type: cell-based
Description: as §1

[17] = tested on: Staphylococcus epidermidis antibiotic susceptible clinical isolate; assay type: cell-based
Description: as §1

[18] = tested on: Enterococcus faecalis - ATCC 29212 antibiotic-susceptible control strain; assay type: cell-based
Description: as §1

[19] = tested on: Enterococcus gallinarum vancomycin-resistant (VanC) clinical isolate; assay type: cell-based
Description: as §1

[20] = tested on: Listeria monocytogenes - antibiotic-susceptible clinical isolate; assay type: cell-based
Description: as §1

[21] = tested on: Staphylococcus aureus ATCC 25923 - antibiotic-susceptible control strain; assay type: cell-based
Description: as §1

[22] = tested on: Corynebacterium jeikeium - multi-drug resistant clinical isolate; assay type: cell-based
Description: as §1

[23] = tested on: Staphylococcus aureus - multi-drug-resistant clinical isolate; assay type: cell-based
Description: as §1

[24] = tested on: Enterococcus faecium vancomycin-resistant (VanB) clinical isolate; assay type: cell-based
Description: as §1

[25] = tested on: Enterobacter sp - multi-drug resistant clinical isolate; assay type: cell-based
Description: as §1

[26] = tested on: Staphylococcus saprophyticus - antibiotic susceptible clinical isolate; assay type: cell-based
Description: as §1

[27] = tested on: Morganella morganii - multi-drug resistant clinical isolate; assay type: cell-based
Description: as §1

[28] = tested on: Pseudomonas aeruginosa - multi-drug resistant clinical isolate; assay type: cell-based
Description: as §1

[29] = tested on: Group C Streptococcus - antibiotic-susceptible clinical isolate; assay type: cell-based
Description: as §1

[30] = tested on: Enterococcus faecalis vancomycin-susceptible clinical isolate; assay type: cell-based
Description: as §1

[31] = tested on: MU50 Staphylococcus aureus (MRSA) - VISA type strain; assay type: cell-based
Description: as §1

[32] = tested on: EMRSA15 Staphylococcus aureus (MRSA) - SSCmec type 4; assay type: cell-based; conditions: EMRSA15 - SSCmec type 4
Description: as §1

[33] = tested on: Escherichia coli ATCC32518 - β-lactamase positive type strain; assay type: cell-based
Description: as §1

[34] = tested on: Escherichia coli - multi-drug resistant clinical isolate; assay type: cell-based
Description: as §1

[35] = tested on: Staphylococcus aureus, strain ATCC 25923; conditions: ATCC 25923
[36] = tested on: Haemophilus influenzae β- lactamase negative ampicillin-resistant clinical isolate
[37] = tested on: Salmonella sp - multi-drug resistant clinical isolate; test: MIC microbroth dilution (CLSI); assay type: cell-based
Description: as §1

[38] = tested on: Shigella sp - antibiotic-susceptible clinical isolate; test: MIC microbroth dilution (CLSI); assay type: cell-based
Description: as §1

[39] = tested on: Salmonella sp - antibiotic-susceptible clinical isolate; test: MIC microbroth dilution (CLSI); assay type: cell-based
Description: as §1

**Q.** Which results are given for `CCCCCCNC(=O)[C@H](CCCNC(=N)N)NC(=O)[C@H](Cc1c(C(C)(C)C)[nH]c2c(C(C)(C)C)cc(C(C)(C)C)cc12)NC(=O)[C@@H](N)CCCNC(=N)N` [Compound 8]?
**A.** MIC [1]: 4 µg/mL (≈ 5.21 µM); MIC [2]: 4 µg/mL (≈ 5.21 µM); MIC [3]: 4 µg/mL (≈ 5.21 µM); MIC [4]: 8 µg/mL (≈ 10.4 µM); MIC [5]: 4 µg/mL (≈ 5.21 µM); MIC [6]: 2 µg/mL (≈ 2.6 µM); MIC [7]: 8 µg/mL (≈ 10.4 µM); MIC [8]: 8 µg/mL (≈ 10.4 µM); MIC [9]: 2 µg/mL (≈ 2.6 µM); MIC [10]: 4 µg/mL (≈ 5.21 µM); MIC [11]: 8 µg/mL (≈ 10.4 µM); MIC [12]: 8 µg/mL (≈ 10.4 µM); MIC [13]: 8 µg/mL (≈ 10.4 µM); MIC [14]: 4 µg/mL (≈ 5.21 µM); MIC [15]: 8 µg/mL (≈ 10.4 µM); MIC [16]: 8 µg/mL (≈ 10.4 µM); MIC [17]: 8 µg/mL (≈ 10.4 µM); MIC [18]: 4 µg/mL (≈ 5.21 µM); MIC [19]: 4 µg/mL (≈ 5.21 µM); MIC [20]: 8 µg/mL (≈ 10.4 µM); MIC [21]: 4 µg/mL (≈ 5.21 µM); MIC [22]: 2 µg/mL (≈ 2.6 µM); MIC [23]: 4 µg/mL (≈ 5.21 µM); MIC [24]: 4 µg/mL (≈ 5.21 µM); MIC [25]: 8 µg/mL (≈ 10.4 µM); MIC [26]: 0.5 µg/mL (≈ 0.651 µM); MIC [27]: 8 µg/mL (≈ 10.4 µM); MIC [28]: 4 µg/mL (≈ 5.21 µM); MIC [29]: 8 µg/mL (≈ 10.4 µM); MIC [30]: 4 µg/mL (≈ 5.21 µM); MIC [31]: 4 µg/mL (≈ 5.21 µM); MIC [32]: 4 µg/mL (≈ 5.21 µM); MIC [33]: 8 µg/mL (≈ 10.4 µM); MIC [34]: 8 µg/mL (≈ 10.4 µM); S. aureus (MIC) [35]: 2 µg/mL; MIC [36]: 8 µg/mL (≈ 10.4 µM); MIC [37]: 8 µg/mL (≈ 10.4 µM); MIC [38]: 4 µg/mL (≈ 5.21 µM); MIC [39]: 8 µg/mL (≈ 10.4 µM)
